In the METLIN SMRT retention time set (Domingo-Almenara et al. 2019):

Experiment: gradient 5% acetonitrile 3 min, to 50% in 2 min, to 85% in 15 min, held 3 min, 100 µL/min
Details: column: Zorbax Extend-C18 2.1 x 50 mm; eluents: water / acetonitrile, 0.1% formic acid
Summary of the method: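 The mobile phases were water and acetonitrile, each with 0.1% formic acid, pumped at 100 μL/min through a Zorbax Extend-C18 column (2.1 × 50 mm, 1.8 μm). Pure standards were injected as mixtures of ~100 molecules and detected by a quadrupole time-of-flight mass spectrometer in positive and negative ionization mode. Retention time came from computationally picked adduct peaks, each inspected by hand.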

RP-LC retention time	Structure (SMILES)
1150 s	Cc1cccc(Sc2nccnc2N2CCCC(C(=O)NC(C)c3ccccc3)C2)c1 (centres undefined)
868 s	Cc1ccc(NC(=O)C2CCN(S(=O)(=O)c3cc(-c4noc(C5CC5)n4)ccc3C)CC2)nc1
672 s	O=C(NCCc1ccccc1)C(=O)NCC(c1ccc2c(c1)OCO2)N1CCOCC1 (centres undefined)
774 s	O=C(NCCc1cccs1)C1CCN(C(=O)c2ncn3c2COC(c2ccc(F)cc2)C3)CC1 (centres undefined)
839 s	CCc1cccc(NC(=O)C2CCc3nc(N4CCOCC4)ncc3C2)c1 (centres undefined)
733 s	CCCNC(=O)C1CCCN(c2ccc(SCC(=O)Nc3ccc(C)cc3C)nn2)C1 (centres undefined)
1180 s	CCOc1ccc2nc(N3CCCC(C(=O)N4CCC(Cc5ccccc5)CC4)C3)sc2c1 (centres undefined)
580 s	Cc1sc2ccn(C)c(=O)c2c1C(=O)NCc1ccc(N2CCCCC2)cc1
860 s	CC(C)NC(=O)c1ccc(OCC2CCN(C(=O)Cc3ccc(F)cc3)CC2)cc1
608 s	O=C(Cn1ncc2c(N3CCN(c4ccccn4)CC3)ncnc21)Nc1ccccc1Br
710 s	COc1cccc(-n2c(N3CCCC(C(=O)NC4CC4)C3)nc3ccsc3c2=O)c1 (centres undefined)
849 s	Cc1csc(-c2ccc(N3CCN(C(=O)Cc4cccc(F)c4)CC3)nc2)n1
1210 s	CCc1nc(-c2csc(S(=O)(=O)N3CCCC(C(=O)Nc4ccc(C(C)C)cc4)C3)c2)no1 (centres undefined)
1050 s	Cc1ccc(CN2CCCN(CC(=O)NC(C)CCc3ccccc3)S2(=O)=O)cc1 (centres undefined)
755 s	CCOC(=O)c1cnc(N2CCN(Cc3ccccc3)CC2)c2ccccc12
677 s	O=C1CC(C(=O)N2CCOCC2)CN1CCc1c[nH]c2ccc(Cl)cc12 (centres undefined)

RP-LC retention time	Structure (SMILES)
788 s	CCOC(=O)N1CCC(c2nnc(Cc3ccc(OC)cc3)s2)CC1
1130 s	CC(=O)N1CCCSc2ccc(S(=O)(=O)N3CCN(c4cc(C)ccc4C)CC3)cc21
1160 s	Cc1ccc(C)c(NC(=O)Cn2nc(N3CCCC(C)C3)c3ccccc3c2=O)c1 (centres undefined)
885 s	O=C(c1ccc(-c2ccc3c(c2)CCN3S(=O)(=O)c2ccccc2)cc1)N1CCOCC1
595 s	CCOC(=O)c1noc2nc(C)nc(NCC3CCN(Cc4ccccc4F)CC3)c12
777 s	O=C(NC(c1ccccc1)c1nnc(N2CCCC2)o1)c1ccc2c(c1)OCO2 (centres undefined)
702 s	O=C(NCc1ccccc1)Nc1cccn2ncnc12
843 s	Cn1c(=O)oc2ccc(C(=O)Nc3nc4ccccc4s3)cc21
757 s	Cc1ccc(CNC(=O)c2cccc(CN3C(=O)C4CCCN4C(=O)c4ccccc43)c2)o1 (centres undefined)
648 s	Cc1nc2ccn(Cc3cccnc3)c(=O)c2cc1C(=O)NCCC1=CCCCC1
878 s	O=C(Nc1ccccc1Cl)c1csc(-c2ccc(N3CCCC3)nc2)n1
1020 s	Cc1cc(C(=O)N2CCCCC2)c2c(=O)n(Cc3nc(-c4ccccc4)oc3C)c(=O)n(C)c2n1
831 s	COc1ccc(OC)c(C2CN(C(=O)C3CCCC3)CC2C(=O)N2CCCCC2)c1 (centres undefined)
631 s	COc1ccc(NC(=O)c2cnc(N3CCN(C4CCCCC4)CC3)nc2N)cc1
830 s	Cc1noc(C)c1CCNC(=O)c1ccc2nc(Cc3ccccc3)oc2c1
755 s	CCCNC(=O)C1CCCN(c2cnc3nc(CC)c(CC)nc3c2)C1 (centres undefined)

The remaining lines, values behind:

Structure (SMILES)	RP-LC retention time
CCC(=O)NCc1nc2c(n1C)CN(S(=O)(=O)c1cc(F)ccc1F)CC2	557 s
CC(C)CN1C(=O)CCc2cc(NS(=O)(=O)c3ccc(Cl)cc3)ccc21	946 s
COc1ccc(S(=O)(=O)N2CCc3c(c(-c4nnc(-c5ccccc5F)o4)nn3C)C2)cc1	882 s
CCn1cc(-c2ccncc2)cc1C(=O)NCc1ccc(N(C)C)cc1	559 s
CS(=O)(=O)N1CCC(C(=O)Nc2sccc2C#N)CC1	662 s
O=C(CNC(=O)Cc1ccc(Cl)cc1)NCc1[nH]nc2ccccc12	703 s
CC(C)Cc1noc(C2(F)CCN(S(=O)(=O)c3ccccc3)CC2)n1	691 s
Cc1cc(C)cc(OCc2nc(CCN(C)C(=O)Nc3ccccc3)no2)c1	970 s
Cc1ccc(-c2nnc(SCC(=O)Nc3cccc(Cl)c3C)o2)cc1	1020 s
CCCc1nc2ccc(CCC(=O)NCc3ccc(F)cc3)cc2[nH]1	624 s
COCCNCc1ccc(-c2cccc(Cl)c2)o1	647 s
CCc1nc2ccccc2c(=O)n1Cc1noc(-c2ccccc2OC)n1	919 s
COc1ccc(-c2c(C)noc2NC(C)=O)cc1S(=O)(=O)N1CCCC1	673 s
COc1cccc(-c2nc(-c3cn(-c4cccc(Cl)c4)nn3)no2)c1	1140 s
O=C(Nc1ccc2ncccc2c1)Nc1ccc2ncccc2c1	604 s
CSc1ccc(CNC(=O)CCC(=O)N2Cc3cccn3-c3ccccc32)cc1	961 s
COc1cccc(CC2C(=O)Nc3ccc(Br)cc32)c1OC (centres undefined)	842 s
COc1ccccc1CNc1nccc(-n2ccc(C)n2)n1	805 s
Cc1cccc(CN2CC(=O)N(c3cccc(Cl)c3)[C@@H]3CS(=O)(=O)C[C@@H]32)c1	892 s

Structure (SMILES)	RP-LC retention time
CCCN1C(=O)C2CCC(=O)N2c2ccc(C(=O)N3CCN(CC)CC3)cc21 (centres undefined)	561 s
c1cc(-c2noc(C3CCCC3)n2)cc(N2CCOCC2)n1	872 s
Cc1ccc(C)c(NC(=O)N(C)CC2CCOC2)c1 (centres undefined)	705 s
CCN(CC)CCNC(=O)c1cc2n(n1)CCCN(Cc1ccc(F)cc1)C2=O	556 s
CC(C)Cc1ccc(C(C)C(=O)N2CC(=O)Nc3ccccc32)cc1 (centres undefined)	968 s
Cc1ccc(C)c(CS(=O)(=O)N2CCc3nc(-c4ccc(Cl)cc4)ncc3C2)c1	1290 s
CCCC1c2nccn2CCCN1C(=O)c1conc1C (centres undefined)	568 s
COc1ccc(C(=O)N2CCC[C@H]2c2nc(C(C)C)n[nH]2)c(OC)n1	590 s
O=C(NC1CC1)c1cn(-c2ccc(-c3nc(C4CC4)no3)cn2)cn1	762 s
CN(C)C1(CC2CC2)CCN(C(=O)C2CC2)CC1	558 s
COCc1noc(C2CN(C(=O)c3cn[nH]c3)CC23CCCC3)n1 (centres undefined)	637 s
COc1ccc(-c2c(C)noc2NC(C)=O)cc1S(=O)(=O)Nc1ccc(F)c(Cl)c1	803 s
CC(C)[C@@H]1NC(=O)[C@H](Cc2ccccc2)NC(=O)[C@@H](CC(=O)O)NC(=O)CNC(=O)[C@H](CCCN=C(N)N)NC1=O	624 s
CCCn1ccc2sc(C)c(C(=O)NCc3cccc(Cl)c3)c2c1=O	990 s
CC(C)CC(=O)N1CCc2cc(CNC(=O)c3ccnn3C)ccc21	754 s
Cc1cc2nc(C(F)(F)F)c(=O)n(C(C)C(=O)N3CCN(C(=O)c4ccco4)CC3)c2cc1C (centres undefined)	957 s
COc1cc(-c2noc(C3CC(=O)N(c4ccc(C(C)C)cc4)C3)n2)cc(OC)c1OC (centres undefined)	605 s
CC(=O)N1CCC(C(=O)Nc2nccs2)CC1	584 s
CCN(C(=O)C1CCC(C)CC1)c1nc(-c2ccc(C)cc2)cs1 (centres undefined)	767 s

Structure (SMILES)	RP-LC retention time
Cc1ccc(Nc2c(-c3c(F)cccc3Cl)nc3ccc(Br)cn23)cc1	985 s
CCc1ccc(NC(=O)C2(C)Oc3cccnc3N(C(C)C)C2=O)cc1 (centres undefined)	1120 s
CCCN1C(=O)c2cc(S(=O)(=O)NCc3cccs3)ccc2Oc2cccnc21	988 s
Cn1nc(C(=O)N2C[C@@H]3C[C@H](NC(=O)c4cccs4)[C@H]2C3)c2ccccc21	778 s
Cc1nnc(-c2ccc3ccn(CC(=O)Nc4cccc(C)c4C)c3c2)o1	798 s
Clc1cccc(-c2nc(Cn3ccnc3)no2)c1	629 s
COc1cccc(NC(=O)Cn2c(C)cc(-c3nnc(-c4ccccc4)o3)c2C)c1	921 s
CCN1C(=O)COc2ccc(-c3noc(/C=C/c4ccc(OC)c(OC)c4)n3)cc21	1050 s
Cc1noc([C@@H]2CC(F)(F)CN2C(=O)c2cnco2)n1	667 s
O=C(Cc1nnc(-c2ccncc2)o1)NCc1ccc(C(F)(F)F)cc1	718 s
Cn1cnnc1SCCNC(=O)CCc1cccc(Oc2ccc(F)cc2)c1	697 s
CN(C)c1ccc(-c2noc(CCC(=O)Nc3ccc4c(c3)OCCO4)n2)cc1	875 s
O=C(COc1ccc([N+](=O)[O-])cc1)Nc1ccc(S(=O)(=O)N2CCCCC2)cc1	886 s
COc1ccc(-c2nnc(-c3ccc(C)c(S(=O)(=O)NC(C)C)c3)o2)cc1OC	873 s
O=c1[nH]c2ccc(O)cc2o1	563 s
Cc1cccc(-c2ncccc2CNS(=O)(=O)c2ccccc2F)c1	702 s
Cn1nc(C(=O)N2CCCC2)c2c1CCN(C(=O)CCC(=O)NCCC1=CCCCC1)C2	734 s
O=c1ccc(-c2cccc(Cl)c2)nn1CCc1nc(-c2ccc(F)cc2)no1	1060 s
COc1ccc(NS(=O)(=O)c2c(C)nn(-c3ccc(-c4ccc(C)cc4)nn3)c2C)cc1	1060 s
